Results as given in the NIST ThermoML archive (doi:10.1016/j.jct.2008.02.020).

Details: Liquid, Buoyancy - hydrostatic balance with magnetic suspension - one sinker

Cc1ccc(Cl)cc1Cl [1,3-dichloro-4-methylbenzene]
Details	mass density [kg/m3]
263.15 K, 97.86 kPa	1280.75
263.15 K, 1123.9 kPa	1281.41
263.15 K, 2150.1 kPa	1282.08
263.15 K, 3971.8 kPa	1283.26
263.15 K, 6167.5 kPa	1284.65
263.15 K, 7898.5 kPa	1285.75
263.15 K, 9974.7 kPa	1287.06
273.15 K, 101.87 kPa	1270.26
273.15 K, 1168.7 kPa	1270.98
273.15 K, 2038.5 kPa	1271.57
273.15 K, 4184.1 kPa	1273.02
273.15 K, 5901.9 kPa	1274.17
273.15 K, 7917 kPa	1275.5
273.15 K, 10080 kPa	1276.92
273.15 K, 11859 kPa	1278.07
273.15 K, 14024 kPa	1279.46
273.15 K, 16108 kPa	1280.79
273.15 K, 17842 kPa	1281.88
273.15 K, 20076 kPa	1283.28
273.15 K, 22132 kPa	1284.55
273.15 K, 24150 kPa	1285.79
273.15 K, 26076 kPa	1286.95
273.15 K, 27913 kPa	1288.06
273.15 K, 29994 kPa	1289.3
293.15 K, 97.54 kPa	1249.31
293.16 K, 1126.7 kPa	1250.08
293.17 K, 1886.8 kPa	1250.65
293.18 K, 4191.9 kPa	1252.36
293.19 K, 6062.4 kPa	1253.73
293.2 K, 7970.1 kPa	1255.11
293.21 K, 10165 kPa	1256.68
293.22 K, 12144 kPa	1258.09
293.23 K, 14101 kPa	1259.46
293.24 K, 16101 kPa	1260.85
293.25 K, 18110 kPa	1262.23
293.26 K, 20077 kPa	1263.55
293.27 K, 22136 kPa	1264.94
293.28 K, 24103 kPa	1266.25
293.29 K, 25962 kPa	1267.48
293.3 K, 27896 kPa	1268.74
293.31 K, 29829 kPa	1270
313.15 K, 107.85 kPa	1228.39
313.15 K, 1095.7 kPa	1229.21
313.15 K, 2082.7 kPa	1230.02
313.15 K, 4107.2 kPa	1231.67
313.15 K, 5854.6 kPa	1233.08
313.15 K, 8123.1 kPa	1234.89
313.15 K, 10162 kPa	1236.49
313.15 K, 12124 kPa	1238.01
313.15 K, 13892 kPa	1239.36
313.15 K, 16106 kPa	1241.04
313.15 K, 18086 kPa	1242.52
313.15 K, 20144 kPa	1244.04
313.15 K, 22020 kPa	1245.42
313.15 K, 24014 kPa	1246.86
313.15 K, 25938 kPa	1248.23
313.15 K, 27776 kPa	1249.54
313.15 K, 29828 kPa	1250.98
333.15 K, 101.71 kPa	1207.38
333.15 K, 1081.7 kPa	1208.28
333.15 K, 1877.8 kPa	1209
333.15 K, 3933.1 kPa	1210.85
333.15 K, 5993.1 kPa	1212.68
333.15 K, 8164.3 kPa	1214.58
333.15 K, 10140 kPa	1216.29
333.15 K, 12129 kPa	1217.98
333.15 K, 14157 kPa	1219.68
333.15 K, 16129 kPa	1221.31
333.15 K, 18148 kPa	1222.96
333.15 K, 20046 kPa	1224.49
333.15 K, 22094 kPa	1226.12
333.15 K, 24026 kPa	1227.64
333.15 K, 25826 kPa	1229.04
333.15 K, 27856 kPa	1230.61
333.15 K, 29702 kPa	1232.01
353.15 K, 101.05 kPa	1186.2
353.15 K, 1224 kPa	1187.34
353.15 K, 2054.2 kPa	1188.18
353.15 K, 4178 kPa	1190.3
353.15 K, 6020.6 kPa	1192.11
353.15 K, 8131.5 kPa	1194.14
353.15 K, 10113 kPa	1196.02
353.15 K, 12081 kPa	1197.87
353.15 K, 14118 kPa	1199.74
353.15 K, 16085 kPa	1201.53
353.15 K, 18058 kPa	1203.29
353.15 K, 19980 kPa	1204.98
353.15 K, 22046 kPa	1206.78
353.15 K, 24056 kPa	1208.5
353.15 K, 26025 kPa	1210.17
353.15 K, 27872 kPa	1211.71
353.15 K, 29804 kPa	1213.32
373.15 K, 99.43 kPa	1164.78
373.15 K, 1084.4 kPa	1165.89
373.15 K, 1956.5 kPa	1166.87
373.15 K, 4135.4 kPa	1169.29
373.15 K, 5954.6 kPa	1171.27
373.15 K, 7981.3 kPa	1173.43
373.15 K, 10128 kPa	1175.67
373.15 K, 11936 kPa	1177.54
373.15 K, 14002 kPa	1179.62
373.15 K, 15987 kPa	1181.6
373.15 K, 18116 kPa	1183.68
373.15 K, 19990 kPa	1185.5
373.15 K, 22002 kPa	1187.4
373.15 K, 23973 kPa	1189.24
373.15 K, 26011 kPa	1191.11
373.15 K, 28050 kPa	1192.96
373.15 K, 29922 kPa	1194.64
393.15 K, 100.49 kPa	1143.03
393.15 K, 1179.5 kPa	1144.4
393.15 K, 1991.5 kPa	1145.42
393.15 K, 3926.6 kPa	1147.8
393.15 K, 5963.8 kPa	1150.27
393.15 K, 7963.7 kPa	1152.64
393.15 K, 10152 kPa	1155.17
393.15 K, 12148 kPa	1157.43
393.15 K, 14137 kPa	1159.65
393.15 K, 16116 kPa	1161.81
393.15 K, 17917 kPa	1163.75
393.15 K, 20141 kPa	1166.09
393.15 K, 22096 kPa	1168.12
393.15 K, 24174 kPa	1170.23
393.15 K, 26160 kPa	1172.22
393.15 K, 27968 kPa	1174
393.15 K, 29927 kPa	1175.92
413.15 K, 100.59 kPa	1120.92
413.15 K, 1151.6 kPa	1122.41
413.15 K, 2145.3 kPa	1123.81
413.15 K, 3981.3 kPa	1126.35
413.15 K, 6146.6 kPa	1129.27
413.15 K, 8164.1 kPa	1131.92
413.15 K, 10060 kPa	1134.35
413.15 K, 11927 kPa	1136.7
413.15 K, 14145 kPa	1139.43
413.15 K, 16150 kPa	1141.84
413.15 K, 18124 kPa	1144.17
413.15 K, 20124 kPa	1146.49
413.15 K, 22139 kPa	1148.77
413.15 K, 24073 kPa	1150.92
413.15 K, 26091 kPa	1153.13
413.15 K, 29979 kPa	1157.28
433.15 K, 95.11 kPa	1098.16
433.15 K, 1136.7 kPa	1099.85
433.15 K, 2147.7 kPa	1101.45
433.15 K, 3917.8 kPa	1104.21
433.15 K, 6150.5 kPa	1107.59
433.15 K, 8148.5 kPa	1110.53
433.15 K, 10046 kPa	1113.26
433.15 K, 12142 kPa	1116.17
433.15 K, 14151 kPa	1118.91
433.15 K, 16187 kPa	1121.62
433.15 K, 18165 kPa	1124.19
433.15 K, 20168 kPa	1126.73
433.15 K, 22138 kPa	1129.18
433.15 K, 24093 kPa	1131.56
433.15 K, 26057 kPa	1133.91
433.15 K, 28003 kPa	1136.2
433.15 K, 29939 kPa	1138.43
453.15 K, 1198.5 kPa	1076.81
453.15 K, 2151.7 kPa	1078.53
453.15 K, 4164.4 kPa	1082.08
453.15 K, 6169.6 kPa	1085.47
453.15 K, 8024.4 kPa	1088.53
453.15 K, 10086 kPa	1091.85
453.15 K, 12119 kPa	1094.99
453.15 K, 14144 kPa	1098.05
453.15 K, 16087 kPa	1100.89
453.15 K, 19984 kPa	1106.47
453.15 K, 22044 kPa	1109.28
453.15 K, 24087 kPa	1112.01
453.15 K, 26125 kPa	1114.68
453.15 K, 28000 kPa	1117.08
453.15 K, 29897 kPa	1119.49
473.15 K, 1132.5 kPa	1052.66
473.15 K, 2054.3 kPa	1054.57
473.15 K, 4181.9 kPa	1058.81
473.15 K, 5970.9 kPa	1062.27
473.15 K, 8153.5 kPa	1066.34
473.15 K, 10138 kPa	1069.91
473.15 K, 12109 kPa	1073.33
473.15 K, 14125 kPa	1073.33
473.15 K, 16133 kPa	1080.01
473.15 K, 18132 kPa	1083.19
473.15 K, 20147 kPa	1086.3
473.15 K, 22083 kPa	1089.22
473.15 K, 24078 kPa	1092.15
473.15 K, 26043 kPa	1094.96
473.15 K, 27886 kPa	1097.55
473.15 K, 29893 kPa	1100.31
